Experimental data from article PMC9739695, “Water-Soluble Salts Based on Benzofuroxan Derivatives—Synthesis and Biological Activity” (International Journal of Molecular Sciences, 2022).
Counter-ions that a name gives are not always drawn. Like-named read-outs stand apart in the source and are kept apart here.

Assays:
SH-SY5Y (neuroblastoma) = assay: Cell viability, MTT test; type: cell-based, Human; settings: Homo sapiens, SH-SY5Y, test range 0.1 to 100 μM, read-out: IC50 (concentration causing 50% inhibition of cell population growth)
Method: (§1) In this work, the cytotoxic potential of the water-soluble salts based on benzofuroxan was determined by the effect of compounds on the survival of the cell tumor origin cultures (SH-SY5Y, Hep2, A549, HeLa) using the MTT test. To understand how the synthesized compounds can influence the healthy microenvironment in the body, the effect of substances on the viability of a normal Hek 293 cell culture was additionally evaluated.
(§2) Human cell cultures of tumor origin—SH-SY5Y (neuroblastoma), HeLa (cervical tumor), Hep-2 (larynx carcinoma), A549 (adenocarcinomic human alveolar basal epithelial cells)—and normal cell line Hek 293 (human embryonic kidneys), provided by the Laboratory of Tumor Cell Genetics of the Scientific Research Institute of Carcinogenesis, N.N. Blokhin National Medical Research Center of Oncology, as well as the Institute of Cytology of the Russian Academy of Sciences, were grown in a nutrient medium DMEM (PanEco, Moscow, Russia) and MEM (PanEco, Moscow, Russia), containing fetal bovine serum (10% by volume) (ThermoFisher Scientific, Paisley, UK), Glutamax (2 mM) (Gibco, Scotland, UK), and penicillin-streptomycin (1% by volume) (PanEco, Moscow, Russia). The cultivation was carried out at 37 °C in a humidified CO2 atmosphere (5%).
(§3) Cell viability was determined by MTT test. Cells were seeded in a 96-well plate in the amount of 1 × 10^4 cells/200µLof complete nutrient medium and cultured at 37 °C in CO2 (5%). After 24 h of incubation, various concentrations of test compounds in the range from 0.1 to 100 μM, were added to the cell cultures, and then the cells were cultured under the same conditions for 24 and 72 h. For each concentration, the experiment was carried out in triplicate.
(§4) All compounds were dissolved in DMSO, then diluted with the medium to the required concentration. […] The DMSO was also added to the control wells in a volume of 1%. After the incubation time, MTT (3-(4,5-dimethylthiazol-2-yl)-2,5-diphenyltetrazolium bromide, 5 mg/mL) was added to each well and plates were additionally incubated for 2 h (until the characteristic color appeared).
(§5) Using a plate analyzer (Cytation3, BioTech Instruments Inc., Winooski, VT, USA), the optical density was determined at 530 nm. The concentration value causing 50% inhibition of cell population growth (IC50) was determined from dose-dependent curves.

[1] = system: Hek 293 (human embryonic kidneys); assay: Cell viability, MTT test, normal cell line; type: cell-based; settings: HEK293, Hek 293 normal cells, test range 0.1 to 100 μM, read-out: IC50 (concentration causing 50% inhibition of cell population growth)
Method: as §1, §2, §3, §4, §5

[2] = system: A549 (adenocarcinomic human alveolar basal epithelial cells); assay: Cell viability, MTT test; type: cell-based; settings: test range 0.1 to 100 μM, read-out: IC50 (concentration causing 50% inhibition of cell population growth)
Method: as §1, §2, §3, §4, §5

Hep-2 (larynx carcinoma) = assay: Cell viability, MTT test; type: cell-based; settings: Homo sapiens, HEp-2, test range 0.1 to 100 μM, read-out: IC50 (concentration causing 50% inhibition of cell population growth)
Method: as §1, §2, §3, §4, §5

HeLa (cervical tumor) = assay: Cell viability, MTT test; type: cell-based; settings: Homo sapiens, test range 0.1 to 100 μM, read-out: IC50 (concentration causing 50% inhibition of cell population growth)
Method: as §1, §2, §3, §4, §5

wheat seeds = assay: Pre-sowing seed treatment, sowing qualities of wheat seeds; type: in vivo; settings: for germination energy: control 82; for laboratory germination: control 85.7
Method: (§6) When evaluating the effectiveness of treatment of wheat, alfalfa, barley, rice, and sorghum seeds as fungicidal and bactericidal agents with preparation compounds at concentrations of 10, 20, and 40 mmol, their effect on the suppression of seed infection was evaluated.
(§7) […] The sowing qualities were evaluated (germination energy for 3–4 days, laboratory germination for 7–8 days) according to GOST 12038-84 [60]. Sowing qualities of seeds were determined in wet chambers. According to the sample, 50 seeds were taken in 4-fold repetition.

rice seeds = assay: Pre-sowing seed treatment, sowing qualities of rice seeds; type: in vivo; settings: for germination energy: control 71.4; for laboratory germination: control 95.2
Method: as §6, §7

sorghum seeds = assay: Pre-sowing seed treatment, sowing qualities of sorghum seeds; type: in vivo; settings: for germination energy: control 52.3; for laboratory germination: control 57
Method: as §6, §7

barley seeds = assay: Pre-sowing seed treatment, sowing qualities of barley seeds; type: in vivo; settings: for germination energy / laboratory germination: control 95.2
Method: as §6, §7

alfalfa seeds = assay: Pre-sowing seed treatment, sowing qualities of alfalfa seeds; type: in vivo; settings: for germination energy / laboratory germination: control 76
Method: as §6, §7

[3] = system: fungal microflora (mushrooms) on alfalfa seeds; assay: Growth of fungal microflora on treated alfalfa seeds; type: cell-based
Method: During phytopathological analyses of agricultural crops, the species composition of fungal and bacterial microflora was established. Laboratory studies were carried out on two nutrient media potato-agar (ingredients: potatoes—200 g; agar-agar—20 g; distilled water—1000 mL.) and potato-dextrose agar (ingredients: potatoes—200 g;dextrose—20 g; agar-agar—20 g; distilled water—1000 mL), according to the guidelines.
When evaluating the effectiveness of treatment of wheat, alfalfa, barley, rice, and sorghum seeds as […], their effect on the suppression of seed infection was evaluated.

In the case of `CN(C)Cc1cccc(Nc2c([N+](=O)[O-])c(Cl)cc3c2no[n+]3[O-])c1` [4b, 6-chloro-4-(3-((dimethylammonio)methyl)phenylamino)-5-nitrobenzo[c][1,2,5]oxadiazole 1-oxide chloride], the IC50 (SH-SY5Y (neuroblastoma); incubation 24 h) is reported as 45.2 ± 2.43 µM, the IC50 (SH-SY5Y (neuroblastoma); incubation 72 h) is reported as 32.1 ± 1.41 µM and the IC50 ([1]; incubation 24 h) is reported as 35 ± 1.35 µM. For the same compound, the IC50 ([1]; incubation 72 h) was 27.2 ± 2.5 µM, the IC50 ([2]; A549, incubation 24 h) was 99.2 ± 3.38 µM and the IC50 ([2]; A549, incubation 72 h) was 90 ± 2.04 µM. For the same compound, the IC50 (Hep-2 (larynx carcinoma); Hep2, incubation 24 h) was 97 ± 2.08 µM, the IC50 (Hep-2 (larynx carcinoma); Hep2, incubation 72 h) was 93.1 ± 2.3 µM and the IC50 (HeLa (cervical tumor); incubation 24 h) was 46.1 ± 0.56 µM. For the same compound, the IC50 (HeLa (cervical tumor); incubation 72 h) was 38.1 ± 1.21 µM.

In the case of `CN(C)Cc1ccc(Nc2c([N+](=O)[O-])c(Cl)cc3c2no[n+]3[O-])cc1` [3c, 6-chloro-4-(4-((dimethylamino)methyl)phenylamino)-5-nitrobenzo[c][1,2,5]oxadiazole 1-oxide], the melting point is reported as > 300 °C (dec.).

For `CN(C)Cc1ccccc1Nc1c([N+](=O)[O-])c(Cl)cc2c1no[n+]2[O-].Cl` [4a, 6-chloro-4-(2-((dimethylammonio)methyl)phenylamino)-5-nitrobenzo[c][1,2,5]oxadiazole 1-oxide chloride], the IC50 (SH-SY5Y (neuroblastoma); incubation 24 h) was 44 ± 1.09 µM, the IC50 (SH-SY5Y (neuroblastoma); incubation 72 h) was 35.1 ± 3.85 µM and the “sowing qualities of seeds compared with control” value (wheat seeds; 10 mmol) was “higher than in the case of controls”. The germination energy (wheat seeds; 10 mmol) was 97%, the laboratory germination (wheat seeds; 10 mmol) was 96.5% and the “sowing qualities of seeds compared with control” value (wheat seeds; 50 mmol) was “higher than in the case of controls”. The germination energy (wheat seeds; 50 mmol) was 95%, the laboratory germination (wheat seeds; 50 mmol) was 96.5% and the “sowing qualities of seeds compared with control” value (rice seeds; 10 mmol) was “better results than the control”. For the same compound, the germination energy (rice seeds; 10 mmol) was 96%, the laboratory germination (rice seeds; 10 mmol) was 96.5% and the “sowing qualities of seeds compared with control” value (rice seeds; 50 mmol) was “better results than the control”. For the same compound, the germination energy (rice seeds; 50 mmol) was 99%, the laboratory germination (rice seeds; 50 mmol) was 99% and the germination energy (sorghum seeds; 10 mmol) was 47.5%. The laboratory germination (sorghum seeds; 10 mmol) was 49.5%, the “sowing qualities of seeds compared with control” value (sorghum seeds; 50 mmol) was “at the control level” and the germination energy (sorghum seeds; 50 mmol) was 52.5%. The laboratory germination (sorghum seeds; 50 mmol) was 56.5%, the “sowing qualities of seeds compared with control” value (barley seeds; 10 mmol) was “higher than control” and the germination energy (barley seeds; 10 mmol) was 96%. The laboratory germination (barley seeds; 10 mmol) was 99%, the “sowing qualities of seeds compared with control” value (barley seeds; 50 mmol) was “higher than control” and the germination energy (barley seeds; 50 mmol) was 95%. It also gave a laboratory germination (barley seeds; 50 mmol) of 97.5%, an IC50 ([1]; incubation 24 h) of 38.62 ± 0.1 µM and an IC50 ([1]; incubation 72 h) of 16.1 ± 1.86 µM. For the same compound, the “sowing qualities of seeds compared with control” value (alfalfa seeds; 10 mmol) was “higher than controls”, the germination energy (alfalfa seeds; 10 mmol) was 83% and the laboratory germination (alfalfa seeds; 10 mmol) was 84.5%. The “sowing qualities of seeds compared with control” value (alfalfa seeds; 50 mmol) was “higher than controls”, the germination energy (alfalfa seeds; 50 mmol) was 78% and the laboratory germination (alfalfa seeds; 50 mmol) was 79.5%. For the same compound, the melting point was 125 to 126 °C (dec.), the IC50 ([2]; A549, incubation 24 h) was 95.5 ± 1.01 µM and the IC50 ([2]; A549, incubation 72 h) was 92.1 ± 3.58 µM. It also gave an IC50 (Hep-2 (larynx carcinoma); Hep2, incubation 24 h) of 98.5 ± 2.54 µM, an IC50 (Hep-2 (larynx carcinoma); Hep2, incubation 72 h) of 90.1 ± 3.1 µM and an IC50 (HeLa (cervical tumor); incubation 24 h) of 40.2 ± 2.73 µM. The IC50 (HeLa (cervical tumor); incubation 72 h) was 32.9 ± 0.56 µM, the “effect on fungal microflora” value ([3]; 10 mmol) was “positive effect on the suppression of fungal microflora” and the “effect on fungal microflora” value ([3]; 50 mmol) was “positive effect on the suppression of fungal microflora”.

`O=[N+]([O-])c1c(Cl)cc2c(no[n+]2[O-])c1NCCN1CCOCC1` (as salt: chloride) [4d, 6-chloro-4-(2-(morpholino-4-ium)ethylamino)-5-nitrobenzo[c][1,2,5]oxadiazole 1-oxide chloride] showed a melting point of 186 to 187 °C.

For `CN(C)Cc1cccc(Nc2c([N+](=O)[O-])c(Cl)cc3c2no[n+]3[O-])c1` [3b, 6-chloro-4-(3-((dimethylamino)methyl)phenylamino)-5-nitrobenzo[c][1,2,5]oxadiazole 1-oxide], the melting point was 118 to 119 °C.

`Cl.O=[N+]([O-])c1c(Cl)cc2c(no[n+]2[O-])c1NCCN1CCCCC1` gave a melting point of 106 to 107 °C.

In the case of `CN(C)Cc1ccccc1Nc1c([N+](=O)[O-])c(Cl)cc2c1no[n+]2[O-]` [3a, 6-chloro-4-(2-((dimethylamino)methyl)phenylamino)-5-nitrobenzo[c][1,2,5]oxadiazole 1-oxide], the melting point is reported as 152 to 153 °C (dec.).

Work on `O=[N+]([O-])c1c(Cl)cc2c(no[n+]2[O-])c1NCCN1CCCCC1` [3f, 6-chloro-5-nitro-4-(2-(piperidin-1-yl)ethylamino)benzo[c][1,2,5]oxadiazole 1-oxide] yielded a melting point of 88 to 89 °C.

`O=[N+]([O-])c1c(Cl)cc2c(no[n+]2[O-])c1NCCN1CCOCC1` [3d, 6-chloro-4-(2-morpholinoethylamino)-5-nitrobenzo[c][1,2,5]oxadiazole 1-oxide] gave a melting point of 140 to 141 °C.
